Source: patent publication US7462614B2, “Imidazotriazine compounds” (Smithkline Beecham Corporation, priority 2003, dated 2008)

biological target: T1, truncated human PLK1 (kinase domain) (Homo sapiens, UniProt P53350); test: Assay for Inhibition of PLK1 (33P SPA enzyme activity); type: biochemical; conditions: 1 μM ATP, 2 nM enzyme; read-out: Ave pIC50 PLK Enzyme Inhibition (converted)
T1 construct: made in house; host or cells: baculovirus-infected T. ni insect cells
Description: I. Assay for Inhibition of PLK1
A. Preparation of 6× N-Terminal His-Tagged PLK Kinase Domain
All procedures are performed at 4° C. Cells are lysed in 25 mM HEPES, 200 mM NaCl, 25 mM imidazole; pH 8.0. The homogenate is centrifuged at 14K rpm in a SLA-1500 rotor for 40 min and the supernatant filtered through a 1.2 micron filter. The supernatant is loaded onto a Nickel chelating Sepharose (Amersham Pharmacia) column and washed with 25 mM HEPES, 500 mM NaCl, 25 mM imidazole; pH 8.0. […] PLK is concentrated using a 10 kDa molecular weight cutoff membrane and then loaded onto a Superdex 75 gel filtration (Amersham BioSciences) column equilibrated in 25 mM HEPES, 1 mM DTT, 500 mM NaCl; pH 8.0. Fractions containing PLK are determined by SDS-PAGE. PLK is pooled, aliquoted and stored at […]. Samples are quality controlled using mass spectrometry.
B. Enzyme Activity±Inhibitors is Determined As Follows:
Compounds are added to the plate (1 μL in 100% DMSO).
Immediately upon addition of enzyme and thorough mixing, add 20 uL per well into 384-well white plates containing compounds and controls. […] The enzymatic reaction is stopped with 50 μl of bead mix (50 mM EDTA, 2 mg/ml Streptavidin-coated SPA beads in Standard Dulbecco's PBS (without Mg^2+and Ca^2+), and 60 μM ATP).

T1 sequence (P53350 21-346): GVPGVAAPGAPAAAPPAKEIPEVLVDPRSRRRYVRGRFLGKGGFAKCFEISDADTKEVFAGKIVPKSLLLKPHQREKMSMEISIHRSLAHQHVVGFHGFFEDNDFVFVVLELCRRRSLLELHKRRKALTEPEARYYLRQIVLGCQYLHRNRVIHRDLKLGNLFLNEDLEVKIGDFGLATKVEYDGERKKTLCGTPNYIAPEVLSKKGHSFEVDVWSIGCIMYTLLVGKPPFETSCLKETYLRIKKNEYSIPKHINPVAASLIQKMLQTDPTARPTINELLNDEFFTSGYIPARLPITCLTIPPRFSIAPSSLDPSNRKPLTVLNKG

| Compound | IC50 [µM] |
| --- | --- |
| COc1cc(Nc2ncc3c(C)nc(-c4cccc(N)c4)n3n2)cc(OC)c1OC [Example 31, 7-(3-Aminophenyl)-5-methyl-N-(3,4,5-trimethoxyphenyl)imidazo-[5,1-f][1,2,4]triazin-2-amine] | < 0.1 |
| COc1ccc(Nc2ncc3c(C)nc(-c4cccc(F)c4)n3n2)cc1 [Example 89, 7-(3-Fluorophenyl)-5-methyl-N-[4-(methyloxy)phenyl]imidazo[5,1-f][1,2,4]triazin-2-amine] | 0.1 to 10 |
| CSc1ccc(Nc2ncc3c(C)nc(-c4ccccc4)n3n2)cc1 [Example 95, 5-Methyl-N-[4-(methylthio)phenyl]-7-phenylimidazo[5,1-f][1,2,4]triazin-2-amine] | 0.1 to 10 |
| Cc1nc(-c2ccccc2)n2nc(NC3CCOCC3)ncc12 [Example 101, 5-Methyl-7-phenyl-N-(tetrahydro-2H-pyran-4-yl)imidazo[5,1-f][1,2,4]triazin-2-amine] | > 10 |
| COc1cc(Nc2ncc3c(C)nc(-c4ccc(F)cc4)n3n2)cc(OC)c1OC [Example 4, 7-(4-Fluorophenyl)-5-methyl-N-(3,4,5-trimethoxyphenyl)imidazo-[5,1-f][1,2,4]triazin-2-amine] | < 0.1 |
| Cc1nc(-c2cccc(C(F)(F)F)c2)n2nc(Nc3ccc(S(N)(=O)=O)cc3)ncc12 [Example 45, 4-({5-Methyl-7-[3-(trifluoromethyl)phenyl]imidazo[5,1-f][1,2,4]triazin-2-yl}amino)benzenesulfonamide] | 0.1 to 10 |
| COc1ccc(Nc2ncc3c(C)nc(-c4ccc(Br)s4)n3n2)cc1 [Example 70, 7-(5-Bromo-2-thienyl)-5-methyl-N-[4-(methyloxy)phenyl]imidazo[5.1-f][1,2,4]triazin-2-amine] | 0.1 to 10 |
| COc1cc(Nc2ncc3c(C)nc(-c4ccccc4[N+](=O)[O-])n3n2)cc(OC)c1OC [Example 2, 5-Methyl-7-(2-nitrophenyl)-N-(3,4,5-trimethoxyvhenyl)imidazo[5,1-f][1,2,4]triazin-2-amine] | 0.1 to 10 |
| COc1ccc(Nc2ncc3c(C)nc(-c4ccsc4)n3n2)cc1 [Example 79, 5-Methyl-N-[4-(methyloxy)phenyl]-7-(3-thienyl)imidazo[5,1-f][1,2,4]triazin-2-amine] | 0.1 to 10 |
| COc1cc(Nc2ncc3c(C)nc(-c4cn(C)c5ccccc45)n3n2)cc(OC)c1OC [Example 35, 5-Methyl-7-(1-methyl-1H-indol-3-yl)-N-(3,4,5-trimethoxyphenyl)-imidazo[5,1-f][1,2,4]triazin-2-amine] | 0.1 to 10 |
| Cc1nc(-c2ccccc2)n2nc(NC3CCCCC3)ncc12 [Example 100, N-Cyclohexyl-5-methyl-7-phenylimidazo[5,1-f][1,2,4]triazin-2-amine] | > 10 |
| COc1cc(Nc2ncc3c(C)nc(-c4cncc(Br)c4)n3n2)cc(OC)c1OC [Example 11, 7-(5-Bromopyridin-3-yl)-5-methyl-N-(3,4,5-trimethoxyphenyl)-imidazo[5.1-f][1,2,4]triazin-2-amine] | 0.1 to 10 |
| COc1ccc(Nc2ncc3c(C)nc(-c4ccccc4Cl)n3n2)cc1 [Example 75, 7-(2-Chlorophenyl)-5-methyl-N-[4-(methyloxy)phenyl]imidazo[5,1-f][1,2,4]triazin-2-amine] | 0.1 to 10 |
| COc1cc(Nc2ncc3c(C)nc(-c4ccc([N+](=O)[O-])[nH]4)n3n2)cc(OC)c1OC [Example 33, 5-Methyl-7-(5-nitro-1H-pyrrol-2-yl)-N-(3,4,5-trimethoxyphenyl)-imidazo[5,1-f][1,2,4]triazin-2-amine] | 0.1 to 10 |
| COc1ccc(Nc2ncc3c(C)nc(C4CC4)n3n2)cc1 [Example 84, 7-Cyclopropyl-5-methyl-N-[4-(methyloxy)phenyl]-imidazo[5,1-f][1,2,4]triazin-2-amine] | 0.1 to 10 |
| COc1cc(Nc2ncc3c(C)nc(-c4cccc(Nc5ccc(Cn6cncn6)cc5)c4)n3n2)cc(OC)c1OC [Example 64, 5-Methyl-7-(3-{[4-(1H-1,2,4-triazol-1-ylmethyl)phenyl]amino}-phenyl)-N-(3,4,5-trimethoxyphenyl)imidazo[5,1-f][1,2,4]triazin-2-amine] | 0.1 to 10 |
| COc1cccc(Nc2ncc3c(C)nc(-c4ccccc4)n3n2)c1 [Example 106, 5-Methyl-N-[3-(methyloxy)phenyl]-7-phenylimidazo[5,1-f][1,2,4]triazin-2-amine] | 0.1 to 10 |
| COc1cc(Nc2ncc3c(C)nc(-c4ccc5[nH]ccc5c4)n3n2)cc(OC)c1OC [Example 37, 7-(1H-Indol-5-yl)-5-methyl-N-(3,4,5-trimethoxyphenyl)imidazo-[5,1-f][1,2,4]triazin-2-amine] | 0.1 to 10 |
| COc1cc(Nc2ncc3c(C)nc(-c4ccc5c(c4)OCO5)n3n2)cc(OC)c1OC [Example 28, 7-(1,3-Benzodioxol-5-yl)-5-methyl-N-(3,4,5-trimethoxyphenyl)-imidazo[5,1-f][1,2,4]triazin-2-amine] | 0.1 to 10 |
| COc1ccc(Nc2ncc3c(C)nc(C4CCCCC4)n3n2)cc1 [Example 85, 7-Cyclohexyl-5-methyl-N-[4-(methyloxy)phenyl]imidazo[5,1-f][1,2,4]triazin-2-amine] | 0.1 to 10 |
| COc1cc(Nc2ncc3c(C)nc(-c4cccc(Nc5cccc(CS(=O)(=O)N(C)C)c5)c4)n3n2)cc(OC)c1OC [Example 67, N,N-Dimethyl-1-{3-[(3-{5-methyl-2-[(3,4,5-trimethoxyphenyl)amino]imidazo[5,1-f][1,2,4]triazin-7-yl}phenyl)amino]phenyl}methanesulfonamide] | 0.1 to 10 |

Further lines, results first:

| IC50 [µM] | Compound |
| --- | --- |
| 0.1 to 10 | COc1cc(Nc2ncc3c(C)nc(-c4cccc(C#Cc5cn[nH]c5)c4)n3n2)cc(OC)c1OC [Example 58, 5-Methyl-7-[3-(1H-pyrazol-4-ylethynyl)phenyl]-N-(3,4,5-trimethoxyphenyl)imidazo[5,1-f][1,2,4]triazin-2-amine] |
| > 10 | CCS(=O)(=O)c1ccc(OC)c(Nc2cccc(-c3nc(C)c4cnc(Nc5cc(OC)c(OC)c(OC)c5)nn34)c2)c1 [Example 63, 7-(3-{[5-(Ethylsulfonyl)-2-methoxyphenyl]amino}phenyl)-5-methyl-N-(3,4,5-trimethoxyphenyl)imidazo[5,1-f][1,2,4]triazin-2-amine] |
| 0.1 to 10 | COc1cc(Nc2ncc3c(C)nc(-c4ccoc4)n3n2)cc(OC)c1OC [Example 36, 7-(3-Furyl)-5-methyl-N-(3,4,5-trimethoxyphenyl)imidazo[5,1-f][1,2,4]triazin-2-amine] |
| > 10 | COc1cc(Nc2ncc3c(C)nc(-c4cccc5cccnc45)n3n2)cc(OC)c1OC [Example 40, 5-Methyl-7-quinolin-8-yl-N-(3,4 5-trimethoxyphenyl)imidazo[5,1-f][1,2,4]triazin-2-amine] |
| 0.1 to 10 | CC(=O)N1CCc2cc(Nc3ncc4c(C)nc(-c5ccccc5)n4n3)ccc21 [Example 99, N-(1-Acetyl-2,3-dihydro-1H-indol-5-yl)-5-methyl-7-phenylimidazo[5,1-f][1,2,4]triazin-2-amine] |
| < 0.1 | COc1cc(Nc2ncc3c(C)nc(-c4cccc(/C=C/C(N)=O)c4)n3n2)cc(OC)c1OC [Example 17, (2E)-3-(3-{5-Methyl-2-[(3,4,5-trimethoxyphenyl)amino]imidazo[5,1-f][1 2,4]triazin-7-yl}phenyl)prop-2-enamide] |
| 0.1 to 10 | COc1cc(Nc2ncc3c(C)nc(-c4cccc(-c5ccc(CC(N)C(=O)O)cc5)c4)n3n2)cc(OC)c1OC (stereo not drawn) [Example 60, 2-Amino-3-(3′-{5-methyl-2-[(3,4,5-trimethoxyphenyl)amino]imidazo-[5,1-f][1,2,4]triazin-7-yl}-1,1′-biphenyl-4-yl)propanoic acid] |
| 0.1 to 10 | COc1ccc(Nc2ncc3c(C)nc(-c4sccc4Br)n3n2)cc1 [Example 71, 7-(3-Bromo-2-thienyl)-5-methyl-N-[4-(methyloxy)phenyl]imidazo[5,1-f][1,2,4]triazin-2-amine] |
| 0.1 to 10 | CCOC(=O)c1cncc(Nc2ncc3c(C)nc(-c4cccc(C(F)(F)F)c4)n3n2)c1 [Example 56, Ethyl 5-({5-methyl-7-[3-(trifluoromethyl)phenyl]imidazo[5,1-f][1,2,4]triazin-2-yl}amino)nicotinate] |
| 0.1 to 10 | COc1cc(Nc2ncc3c(C)nc(-c4cccc(Nc5cccc(S(=O)(=O)NC6CC6)c5)c4)n3n2)cc(OC)c1OC [Example 69, N-Cyclopropyl-3-[(3-{5-methyl-2-[(3,4,5-trimethoxyphenyl)amino]imidazo[5,1-f][1,2,4]triazin-7-yl}phenyl)amino]benzenesulfonamide] |
| > 10 | COc1cc(Nc2ncc3c(C)nc(-c4ccccc4NC(=O)C(C)(C)C)n3n2)cc(OC)c1OC [Example 6, 2,2-Dimethyl-N-(2-{5-methyl-2-[(3,4,5-trimethoxyphenyl)amino]-imidazo[5,1-f][1,2,4]triazin-7-yl}phenyl)propanamide] |
| 0.1 to 10 | COc1cc(Nc2ncc3c(C)nc(-c4cccc(/C(=C\C(N)=O)c5ccccc5)c4)n3n2)cc(OC)c1OC [Example 62, (2Z)-3-(3-{5-Methyl-2-[(3,4,5-trimethoxyphenyl)amino]-imidazo[5,1-f][1,2,4]triazin-7-yl}phenyl)-3-phenylprop-2-enamide] |
